Laboratory results: ChEMBL document CHEMBL3885881, “DrugMatrix”

Species on record: Rattus norvegicus
Test: DrugMatrix - Regimen: Daily Repeat
Type: toxicity, organism-based, Sprague-Dawley
Set-up: regimen Daily Repeat, gender Male, age 6-8 weeks
Conditions: in vivo, po, route oral GAVAGE, vehicle 100 % WATER; for URIC ACID / ALANINE AMINOTRANSFERASE / ALKALINE PHOSPHATASE / ASPARTATE AMINOTRANSFERASE / BLOOD UREA NITROGEN / CARBON DIOXIDE / CHLORIDE / CHOLESTEROL / CREATINE PHOSPHOKINASE / CREATININE / GLUCOSE / LACTATE DEHYDROGENASE / LIPASE / PHOSPHORUS / POTASSIUM / SODIUM / TOTAL BILIRUBIN / TOTAL PROTEIN: tissue Plasma; for ABSOLUTE BASOPHIL / ABSOLUTE EOSINOPHIL / ABSOLUTE LYMPHOCYTE / ABSOLUTE MONOCYTE / ABSOLUTE SEGMENTED NEUTROPHIL / BASOPHIL / EOSINOPHIL / ERYTHROCYTE COUNT / HEMATOCRIT / HEMOGLOBIN / LEUKOCYTE COUNT / LYMPHOCYTE / MEAN CORPUSCULAR HEMOGLOBIN / MEAN CORPUSCULAR HEMOGLOBIN CONCENTRATION / MEAN CORPUSCULAR VOLUME / MONOCYTE / NEUTROPHIL / NUCLEATED RED BLOOD CELLS: tissue Blood
[1] = 18 mg/kg, 120 h, dose level Low, time 5 day
[2] = 73 mg/kg, 72 h, dose level High, time 3 day
[3] = 73 mg/kg, 120 h, dose level High, time 5 day

In the case of `CN(C)CCCN1c2ccccc2Sc2ccc(Cl)cc21` [CHLORPROMAZINE], the “URIC ACID” value (18 mg/kg, 72 h, dose level Low, time 3 day) is reported as 0.4 mg/dL, the “ABSOLUTE BASOPHIL” value [1] is reported as 0 CELLS/uL and the “ABSOLUTE EOSINOPHIL” value [1] is reported as 76 CELLS/uL. The “ABSOLUTE LYMPHOCYTE” value [1] was 7709.67 CELLS/uL, the “ABSOLUTE MONOCYTE” value [1] was 216 CELLS/uL and the “ABSOLUTE SEGMENTED NEUTROPHIL” value [1] was 898.33 CELLS/uL. The BASOPHIL [1] was 0%, the EOSINOPHIL [1] was 0.67% and the “ERYTHROCYTE COUNT” value [1] was 5.62 x10E6/uL. For the same compound, the HEMATOCRIT [1] was 36.23%, the HEMOGLOBIN [1] was 13.87 G/DL and the “LEUKOCYTE COUNT” value [1] was 8.9 x10E3/uL. For the same compound, the LYMPHOCYTE [1] was 87%, the “MEAN CORPUSCULAR HEMOGLOBIN” value [1] was 24.7 pg and the “MEAN CORPUSCULAR HEMOGLOBIN CONCENTRATION” value [1] was 38.27 G/DL. The “MEAN CORPUSCULAR VOLUME” value [1] was 64.5 fL, the MONOCYTE [1] was 2.33% and the NEUTROPHIL [1] was 10%. For the same compound, the “NUCLEATED RED BLOOD CELLS” value [1] was 0 /100WBC, the “ALANINE AMINOTRANSFERASE” value [1] was 54.67 u/L and the “ALKALINE PHOSPHATASE” value [1] was 255.67 u/L. The “ASPARTATE AMINOTRANSFERASE” value [1] was 80.33 u/L, the “BLOOD UREA NITROGEN” value [1] was 14.33 mg/dL and the “CARBON DIOXIDE” value [1] was 29.33 mmol/L. The CHLORIDE [1] was 102.33 MEQ/L, the CHOLESTEROL [1] was 84.67 mg/dL and the “CREATINE PHOSPHOKINASE” value [1] was 218.67 u/L. For the same compound, the CREATININE [1] was 0.12 mg/dL, the GLUCOSE [1] was 141.33 mg/dL and the “LACTATE DEHYDROGENASE” value [1] was 69.67 u/L. For the same compound, the LIPASE [1] was 9 u/L, the PHOSPHORUS [1] was 11.6 mg/dL and the POTASSIUM [1] was 5.95 MEQ/L. The SODIUM [1] was 145.57 MEQ/L, the “TOTAL BILIRUBIN” value [1] was 0.13 mg/dL and the “URIC ACID” value [1] was 0.6 mg/dL. For the same compound, the “ABSOLUTE BASOPHIL” value [2] was 0 CELLS/uL, the “ABSOLUTE EOSINOPHIL” value [2] was 0 CELLS/uL and the “ABSOLUTE LYMPHOCYTE” value [2] was 7383 CELLS/uL. For the same compound, the “ABSOLUTE MONOCYTE” value [2] was 208 CELLS/uL, the “ABSOLUTE SEGMENTED NEUTROPHIL” value [2] was 342.33 CELLS/uL and the BASOPHIL [2] was 0%. For the same compound, the EOSINOPHIL [2] was 0%, the “ERYTHROCYTE COUNT” value [2] was 5.6 x10E6/uL and the HEMATOCRIT [2] was 35.37%. For the same compound, the HEMOGLOBIN [2] was 13.77 G/DL, the “LEUKOCYTE COUNT” value [2] was 7.93 x10E3/uL and the LYMPHOCYTE [2] was 92.33%. For the same compound, the “MEAN CORPUSCULAR HEMOGLOBIN” value [2] was 24.63 pg, the “MEAN CORPUSCULAR HEMOGLOBIN CONCENTRATION” value [2] was 38.93 G/DL and the “MEAN CORPUSCULAR VOLUME” value [2] was 63.17 fL. For the same compound, the MONOCYTE [2] was 3%, the NEUTROPHIL [2] was 4.67% and the “NUCLEATED RED BLOOD CELLS” value [2] was 0 /100WBC. For the same compound, the “ALANINE AMINOTRANSFERASE” value [2] was 56 u/L, the “ALKALINE PHOSPHATASE” value [2] was 291.33 u/L and the “ASPARTATE AMINOTRANSFERASE” value [2] was 84 u/L. The “BLOOD UREA NITROGEN” value [2] was 14.33 mg/dL, the “CARBON DIOXIDE” value [2] was 37.67 mmol/L and the CHLORIDE [2] was 101 MEQ/L. For the same compound, the CHOLESTEROL [2] was 99 mg/dL, the “CREATINE PHOSPHOKINASE” value [2] was 176.33 u/L and the CREATININE [2] was 0.27 mg/dL. For the same compound, the GLUCOSE [2] was 154.67 mg/dL, the “LACTATE DEHYDROGENASE” value [2] was 52.67 u/L and the LIPASE [2] was 12 u/L. It also gave a PHOSPHORUS [2] of 8.2 mg/dL, a POTASSIUM [2] of 5.02 MEQ/L and an SODIUM [2] of 145.37 MEQ/L. The “TOTAL BILIRUBIN” value [2] was 0.13 mg/dL, the “TOTAL PROTEIN” value [2] was 5.7 G/DL and the “URIC ACID” value [2] was 0.4 mg/dL. The “ABSOLUTE BASOPHIL” value [3] was 0 CELLS/uL, the “ABSOLUTE EOSINOPHIL” value [3] was 148.67 CELLS/uL and the “ABSOLUTE LYMPHOCYTE” value [3] was 10432 CELLS/uL. The “ABSOLUTE MONOCYTE” value [3] was 268.67 CELLS/uL, the “ABSOLUTE SEGMENTED NEUTROPHIL” value [3] was 584 CELLS/uL and the BASOPHIL [3] was 0%. The EOSINOPHIL [3] was 1.33%, the “ERYTHROCYTE COUNT” value [3] was 6.19 x10E6/uL and the HEMATOCRIT [3] was 38.2%. For the same compound, the HEMOGLOBIN [3] was 14.83 G/DL, the “LEUKOCYTE COUNT” value [3] was 11.43 x10E3/uL and the LYMPHOCYTE [3] was 91%. For the same compound, the “MEAN CORPUSCULAR HEMOGLOBIN” value [3] was 23.93 pg, the “MEAN CORPUSCULAR HEMOGLOBIN CONCENTRATION” value [3] was 38.87 G/DL and the “MEAN CORPUSCULAR VOLUME” value [3] was 61.63 fL. For the same compound, the MONOCYTE [3] was 2.33%, the NEUTROPHIL [3] was 5.33% and the “NUCLEATED RED BLOOD CELLS” value [3] was 0 /100WBC. For the same compound, the “ALANINE AMINOTRANSFERASE” value [3] was 61.67 u/L, the “ALKALINE PHOSPHATASE” value [3] was 321.67 u/L and the “ASPARTATE AMINOTRANSFERASE” value [3] was 110.67 u/L. For the same compound, the “BLOOD UREA NITROGEN” value [3] was 24.67 mg/dL, the “CARBON DIOXIDE” value [3] was 27.67 mmol/L and the CHLORIDE [3] was 103.33 MEQ/L. The CHOLESTEROL [3] was 87.33 mg/dL, the “CREATINE PHOSPHOKINASE” value [3] was 231.67 u/L and the CREATININE [3] was 0.25 mg/dL. The GLUCOSE [3] was 142.33 mg/dL, the “LACTATE DEHYDROGENASE” value [3] was 88.67 u/L and the LIPASE [3] was 10.33 u/L. The PHOSPHORUS [3] was 9.27 mg/dL, the POTASSIUM [3] was 5.11 MEQ/L and the SODIUM [3] was 145.67 MEQ/L. For the same compound, the “TOTAL BILIRUBIN” value [3] was 0.17 mg/dL, the “TOTAL PROTEIN” value [3] was 6.07 G/DL and the “URIC ACID” value [3] was 0.43 mg/dL.
